Values after ≈ are worked out from the molar mass of the structure shown. Read-outs that look alike come from different tables or passages of the source.
Assays:
[1] = tested on: vancomycin-resistant E. faecalis (ATCC 700802)
[2] = tested on: methicillin-resistant S. aureus (ATCC 33592)
[3] = tested on: human red blood cells (hRBC's); experiment: Hemolysis assay; type: cell-based
Protocol: Freshly drawn human red blood cells (hRBC's) with additive K2 EDTA (spray-dried) were washed with PBS buffer several times and centrifuged at 1000 g for 10 min until a clear supernatant was observed. The hRBC's were resuspended in 1×PBS to get a 5% v/v suspension. Two-fold serial dilutions of γ-AApeptides dissolved in 1×PBS from 250 μg/ml through 1.6 μg/ml were added to a sterile 96-well plate to make up a total volume of 50 μL in each well. Then 50 μL of 5% v/v hRBC solution was added to make up a total volume of 100 μL in each well. The 0% hemolysis point and 100% hemolysis point were determined in 1×PBS and 0.2% Triton-X-100, respectively (Patch et al., 2003). The plate was then incubated at 37° C. for 1 h and centrifuged at 3500 rpm for 10 min. The supernatant (30 μL) was diluted with 100 μL of 1×PBS and absorption was detected by measuring the optical density at 360 nm by Biotek Synergy HT microtiter plate reader. % hemolysis was determined by the following equation: % hemolysis=(Abssample−AbsPBS)/(AbsTriton−AbsPBS)×100 H50 is the concentration of γ-AApeptide amphiphiles at which 50% hemolysis was observed. The highest concentration tested in the hemolytic assay was 500 μg/ml. 7. Fluorescence Microscopy
The sequences shown in FIG. 12 were also evaluated via hemolytic assays. Freshly drawn human red blood cells (hRBC's) with additive K2 EDTA (spray-dried) were washed with PBS buffer several times and centrifuged at 1000 g for 10 min until a clear supernatant was observed. The hRBC's were resuspended in 1×PBS to get a 5% v/v suspension. Two-fold serial dilutions of lipidated γ-AApeptides dissolved in 1×PBS from 1 mg/ml through 6.3 μg/ml were added to sterile 96-well plates to make up a total volume of 50 μL in each well. Then 50 μL of 5% v/v hRBC solution was added to make up a total volume of 100 μL in each well. The 0% hemolysis point and 100% hemolysis point were determined in 1×PBS and 0.2% Triton-X-100, respectively (Patch et al., 2003). The plate was then incubated at 37° C. for 1 h and centrifuged at 3500 rpm for 10 min. The supernatant (30 μL) was diluted with 100 μL of 1×PBS and absorption was detected by measuring the optical density at 360 nm with a Biotek Synergy HT microtiter plate reader. % hemolysis was determined by the following equation: % hemolysis=(Abs sample−Abs PBS)/(Abs Triton−Abs PBS)×100

[4] = tested on: multi-drug resistant P. aeruginosa ATCC 27853
[5] = tested on: K. pneumoniae (ATCC 13383)
[6] = tested on: multi-drug resistant S. epidermidis (RP62A)
[7] = Table 5, first value of H10/H50
[8] = Table 5, second value of H10/H50

Row | SMILES | MIC, E. faecalis (VREF) ([1]; Table 5) [µg/mL] | MIC, S. aureus (MRSA) ([2]; Table 5) | Hemolysis H10 [3, 7] [µg/mL] | Hemolysis H50 [3, 8] [µg/mL] | MIC, B. subtilis (B. subtilis (BR151)) [µg/mL] | MIC, Fungus C. albicans (C. albicans (ATCC 10231); ATCC 10231) [µg/mL] | MIC, K. pneumoniae [5] [µg/mL] | MIC, S. epidermidis (MRSE) ([6]; Table 5) [µg/mL] | Hemolysis H10 [3] [µg/mL] | Hemolysis H50 [3] [µg/mL] | MIC, P. aeruginosa ([4]; ATCC 27853) [µg/mL] | MIC, E. coli (E. coli (JM109)) [µg/mL] | MIC, K. pneumoniae (causing pneumonia) [5] [µg/mL] | other results
1 | NCCCC[C@H]1CN(C(=O)CCc2ccccc2)CC(=O)N[C@@H](CCCCN)CN(C(=O)CCc2ccccc2)CC(=O)N[C@@H](CCCCN)CN(C(=O)CCc2ccccc2)CC(=O)N[C@@H](CCCCN)CN(C(=O)CCc2ccccc2)CC(=O)N[C@@H](Cc2ccccc2)CN(CC(N)=O)C(=O)CCC(=O)N1 [HW-B-3] | > 50 | > 50 µg/mL | > 500 | > 500 | 25000 to 50000 | > 50 | > 50 | > 50 |  |  |  |  |  | MIC, P. aeruginosa ([4]; Table 5): > 50 µg/mL
2 | NCCCC[C@H]1CN(C(=O)CCc2ccccc2)CC(=O)N[C@@H](CCCCN)CN(C(=O)CCc2ccccc2)CC(=O)N[C@@H](CCCCN)CN(C(=O)CCc2ccccc2)CC(=O)N[C@@H](CCCCN)CN(C(=O)CCc2ccccc2)CC(=O)N[C@@H](CCCCN)CN(C(=O)CCc2ccccc2)CC(=O)N[C@@H](Cc2ccccc2)CN(CC(N)=O)C(=O)CCC(=O)N1 [HW-B-4] | 20 (≈ 11.1 µM) | > 50 µg/mL |  |  | 10 (≈ 5.54 µM) | > 50 | > 50 | 10 (≈ 5.54 µM) | > 500 | > 500 | 20 (≈ 11.1 µM) |  |  | 
3 | NCCCC[C@H]1CN(C(=O)CCc2ccccc2)CC(=O)N[C@@H](CCCCN)CN(C(=O)CCc2ccccc2)CC(=O)N[C@@H](CCCCN)CN(C(=O)CCc2ccccc2)CC(=O)N[C@@H](CCCCN)CN(C(=O)CCc2ccccc2)CC(=O)N[C@@H](CCCCN)CN(C(=O)CCc2ccccc2)CC(=O)N[C@@H](CCCCN)CN(C(=O)CCc2ccccc2)CC(=O)N[C@@H](Cc2ccccc2)CN(CC(N)=O)C(=O)CCC(=O)N1 [HW-B-5] | 20 (≈ 9.48 µM) | 25-50 |  |  | 5 (≈ 2.37 µM) | > 50 | > 50 | 8 (≈ 3.79 µM) | > 500 | > 500 | 18 (≈ 8.53 µM) |  |  | 
4 | CC(C)CCC(=O)N1CC(=O)N[C@@H](CCCCN)CN(C(=O)CCc2ccccc2)CC(=O)N[C@@H](CCCCN)CN(C(=O)CCc2ccccc2)CC(=O)N[C@@H](Cc2ccccc2)CN(CC(N)=O)C(=O)CCC(=O)N[C@@H](CCCCN)CN(C(=O)CCc2ccccc2)CC(=O)N[C@@H](CCCCN)CN(C(=O)CCc2ccccc2)CC(=O)N[C@@H](CCCCN)CN(C(=O)CCc2ccccc2)CC(=O)N[C@@H](Cc2ccccc2)C1 [HW-B-11] |  |  | 200 | > 500 |  |  | 20 (≈ 9.55 µM) |  |  |  |  |  |  | MIC, E. faecalis (VREF) ([1]; ATCC 700802): 15 µg/mL (≈ 7.16 µM); MIC, S. aureus (MRSA) ([2]; ATCC 33592): 5 µg/mL (≈ 2.39 µM); MIC, P. aeruginosa ([4]; Table 5): 10 µg/mL (≈ 4.77 µM); MIC, Fungus C. albicans (C. albicans (ATCC 10231); Table 5): 5 µg/mL (≈ 2.39 µM); MIC, S. epidermidis (MRSE) ([6]; multi-drug resistant (RP62A)): 2 µg/mL (≈ 0.955 µM)
5 | CC(C)CCC(=O)N1CC(=O)N[C@@H](CCCCN)CN(C(=O)CCc2ccccc2)CC(=O)N[C@@H](Cc2ccccc2)CN(CC(N)=O)C(=O)CCC(=O)N[C@@H](CCCCN)CN(C(=O)CCc2ccccc2)CC(=O)N[C@@H](Cc2ccccc2)CN(C(=O)CCC(C)C)CC(=O)N[C@@H](CCCCN)CN(C(=O)CCc2ccccc2)CC(=O)N[C@@H](CCCCN)CN(C(=O)CCc2ccccc2)CC(=O)N[C@@H](Cc2ccccc2)C1 [HW-B-12] | 8 (≈ 3.85 µM) | 6 µg/mL (≈ 2.88 µM) |  |  | 5 (≈ 2.4 µM) | 5 (≈ 2.4 µM) | 5 (≈ 2.4 µM) | 5 (≈ 2.4 µM) | 150 | 450 | > 50 |  |  | 
6 | CC(C)CCC(=O)N1CC(=O)N[C@@H](Cc2ccccc2)CN(C(=O)CCC(C)C)CC(=O)N[C@@H](CCCCN)CN(C(=O)CCc2ccccc2)CC(=O)N[C@@H](CCCCN)CN(C(=O)CCc2ccccc2)CC(=O)N[C@@H](CCCCN)CN(C(=O)CCc2ccccc2)CC(=O)N[C@@H](CCCCN)CN(C(=O)CCc2ccccc2)CC(=O)N[C@@H](Cc2ccccc2)CN(CC(N)=O)C(=O)CCC(=O)N[C@@H](Cc2ccccc2)C1 [HW-B-13] | 5 (≈ 2.4 µM) | 1 |  |  |  | 2 (≈ 0.962 µM) | 8 (≈ 3.85 µM) | 2 (≈ 0.962 µM) | 40 | 100 |  |  |  | 
7 | CC(C)CCC(=O)N1CC(=O)N[C@@H](Cc2ccccc2)CN(C(=O)CCC(C)C)CC(=O)N[C@@H](Cc2ccccc2)CN(C(=O)CCC(C)C)CC(=O)N[C@@H](CCCCN)CN(C(=O)CCc2ccccc2)CC(=O)N[C@@H](CCCCN)CN(C(=O)CCc2ccccc2)CC(=O)N[C@@H](CCCCN)CN(C(=O)CCc2ccccc2)CC(=O)N[C@@H](Cc2ccccc2)CN(CC(N)=O)C(=O)CCC(=O)N[C@@H](Cc2ccccc2)C1 [HW-B-14] |  |  | 45 | 300 |  | 4 (≈ 1.94 µM) | 10 (≈ 4.84 µM) |  |  |  |  |  |  | MIC, E. faecalis (VREF) ([1]; ATCC 700802): 5 µg/mL (≈ 2.42 µM); MIC, S. aureus (MRSA) ([2]; ATCC 33592): 3 µg/mL (≈ 1.45 µM); MIC, S. epidermidis (MRSE) ([6]; multi-drug resistant (RP62A)): 2 µg/mL (≈ 0.969 µM)
8 | NCCCC[C@H](N)CN(CC(=O)N[C@@H](CCCCN)CN(CC(=O)N[C@@H](CCCCN)CN(CC(N)=O)C(=O)CCc1ccccc1)C(=O)CCc1ccccc1)C(=O)CCc1ccccc1 [γ1] |  |  |  |  | >100 |  |  |  |  |  |  | >100 | >100 | MIC, E. faecalis (vancomycin-resistant) ([1]; Table 1): >100 µg/mL; MIC, S. aureus (methicillin-resistant) ([2]; Table 1): >100 µg/mL; MIC, S. epidermidis (multi-drug resistant) ([6]; Table 1): >100 µg/mL
9 | NCCCC[C@H](N)CN(CC(=O)N[C@@H](CCCCN)CN(CC(=O)N[C@@H](CCCCN)CN(CC(=O)N[C@@H](CCCCN)CN(CC(=O)N[C@@H](CCCCN)CN(CC(N)=O)C(=O)CCc1ccccc1)C(=O)CCc1ccccc1)C(=O)CCc1ccccc1)C(=O)CCc1ccccc1)C(=O)CCc1ccccc1 [γ2] |  |  |  |  | 5 (≈ 3.26 µM) |  |  |  |  |  |  | 25 (≈ 16.3 µM) | >100 | MIC, E. faecalis (vancomycin-resistant) ([1]; Table 1): >100 µg/mL; MIC, S. aureus (methicillin-resistant) ([2]; Table 1): >100 µg/mL; MIC, S. epidermidis (multi-drug resistant) ([6]; Table 1): >100 µg/mL
10 | CC(C)CCC(=O)N1CC(=O)N[C@@H](CCCCN)CN(C(=O)CCc2ccccc2)CC(=O)N[C@@H](CCCCN)CN(C(=O)CCc2ccccc2)CC(=O)N[C@@H](Cc2ccccc2)CN(CC(N)=O)C(=O)CCC(=O)N[C@@H](CCCCN)CN(C(=O)CCc2ccccc2)CC(=O)N[C@@H](CCCCN)CN(C(=O)CCc2ccccc2)CC(=O)N[C@@H](CCCCN)CN(C(=O)CCc2ccccc2)CC(=O)N[C@@H](Cc2ccccc2)C1 [γAA4] |  |  |  |  | 2 (≈ 0.955 µM) |  |  |  |  |  |  | 3.1 to 6.3 | >100 | MIC, E. faecalis (vancomycin-resistant) ([1]; ATCC 700802): 12.5 to 25 µg/mL; MIC, S. aureus (methicillin-resistant) ([2]; ATCC 33592): 3.1 to 6.3 µg/mL; Hemolysis (H50) ([3]; Table 3): >500 µg/mL; MIC, Fungi C. albicans (C. albicans (ATCC 10231); ATCC 10231): 3 to 6 µg/mL; MIC, S. epidermidis (multi-drug resistant) ([6]; multi-drug resistant (RP62A)): 2 µg/mL (≈ 0.955 µM)

Reference: US10308686B2, “Gamma-AApeptides with potent and broad-spectrum antimicrobial activity” (priority 2012, dated 2019)
